We go through 3 molecules from patent US20110201688A1, “N,N'-DI-P-BROMOPHENYL GUANIDINE TREATMENT FOR STROKE AT DELAYED TIMEPOINTS” (UNIVERSITY OF SOUTH FLORIDA, priority 2008, published 2011).

Molecules are shown by their SMILES.

The term Kd denotes the free concentration of one partner at which half of the binding sites on the other are occupied at equilibrium, for simple one-to-one binding.

The subject of experiment [1] is cortical neurons. Nature of the experiment: Inhibition of [Ca2+]i increases evoked by chemical ischemia (sodium azide/glucose deprivation) in cortical neurons, Fura-2. Format: cell-based, rat. To be noted: for More effective than DTG in depressing Ca2+ dysregulation: ischemia-induced [Ca2+]i, relative to DTG set to 1. As for the experimental part: Concentration-response relationship for p-Br-DPG inhibition of [Ca^2+]i increases evoked by chemical ischemia (4 mM azide, 0 glucose). […] Dashed line is fit to the data in FIG. 7, shoing p-Br-DPhG inhibition of acidosis-induced Ca^2+ elevations and is included for comparison.
(§1) The effects of sigma receptors on ischemia-induced changes in intracellular calcium concentrations were studied in cultured cortical neurons from embryonic (E18) rats. Dams were euthanatized by decapitation, uterus removed, and embryos dissected out and placed in isotonic buffer containing 137 mM NaCl, 5 mM KCl, 0.2 mM NaH2PO4, 0.2 mM KH2PO4, 5.5 mM glucose, 6 mM sucrose (pH 7.4 with NaOH). Cortex were excised and minced, and tissue digested in isotonic buffer containing 0.25% trypsin/EDTA for 10 min at 37° C. and added to 3× volume of high glucose culture media (Dulbecco's Modified Eagle Media; Invitrogen, Inc., Carlsbad, Calif.), 10% (v/v) fetal calf serum, 100 U/ml penicillin and 0.1 mg/ml streptomycin. Cells were counted on a hemocytometer, plated (0.5×10^6 cells) on 18 mm coverslips coated with poly-1-lysine, and incubated at 37° C. under a 95% air, 5% CO2 atmosphere. After 24 hr the media was replaced with Neurobasal (Invitrogen, Inc., Carlsbad, Calif.) medium supplemented with B27 (Invitrogen, Inc., Carlsbad, Calif.) and 0.5 mM 1-glutamine to limit astrocyte proliferation in the cultures. Cells were used for studies after 14-21 days in culture.
The in vitro NaN3 chemical ischemia disrupts cell metabolism, which ultimately results in plasma membrane dysfunction and intracellular Ca^2+ dysregulation. Fura-2 dye was used to measure changes in intracellular Ca^2+ in the cells. Ischemia was induced in the absence or presence of the drugs to test directly the cell response to sigma receptor activation under ischemic conditions. […] The level of resulting [Ca^2+]i inhibition was compared to DTG, which was set to a relative [Ca^2+]i, level of 1 as indicated by the dashed line. […]

Experiment [2] concerns cortical neurons. Nature of the experiment: Inhibition of [Ca2+]i increases evoked by acidosis (pH 6.0) in cortical neurons. The class given is cell-based, rat. To be noted: acidosis pH 6.0, cortical neurons; for Kd: n>50, read-out: Kd (Langmuir-Hill fit) for inhibition of [Ca2+]i increases evoked by acidosis. As for the experimental part: Concentration-response relationship for p-Br-DPG and DTG inhibition of [Ca^2+]i increases evoked by acidosis (pH 6.0).
as §1
(Ringel F, et al. Lactacidosis-induced glial cell swelling depends on extracellular Ca^2+. Neurosci Lett. 2006 May 8; 398(3):306-9. Epub 2006 Feb. 15). p-Br-DPG was characterized against DTG to determine the ability to inhibit [Ca^2+]i dysregulation in cortical neurons. Cells were administered the indicated amounts of either p-BrDPhG or DTG, followed by cellular [Ca^2+]i dysregulation stimulation by acidosis (pH 6.0). […] A dashed line is superimposed, showing the acidosis results from FIG. 7 for comparison.

Experiment [3] concerns Sprague-Dawley rats. The experiment is described as follows: Permanent middle cerebral artery occlusion (MCAO), infarct volume by Fluoro-Jade staining. The class given is in vivo, rat. The conditions noted are these: sacrificed at 96 h. The procedure:
FIG. 9 is a graph showing the data for rats after surgery for permanent middle cerebral arterial occlusion. Rats were treated as indicated at 24, 48, and 72 h and sacrificed at 96 hours. Brain sections were stained with Fluoro-Jade to determine infarct volumes.
11 adult male Sprague-Dawley rats (Harlan, Indianapolis, Ind.) weighing 300 to 350 g were housed in a climate controlled room with water and laboratory chow available ad libidum. Sprague-Dawley rats (300-350 g) were randomly assigned to 1 of 3 groups: MCAO (n=4); MCAO and DTG (n=3); or MCAO and p-Br-DPG (n=4). MCAO surgery was performed as previously reported by Vendrame et al. (Vendrame, et al., Infusion of human umbilical cord blood cells in a rat model of stroke dose-dependently rescues behavioral deficits and reduces infarct volume. Stroke. 2004 October; 35(10):2390-5. Epub 2004 Aug. 19) and originally described by Longa et al. (Longa, et al., Reversible middle cerebral artery occlusion without craniectomy in rats. Stroke. 1989 January; 20(1):84-9). […]
Rats were treated as indicated at 24, 48, and 72 hours after MCAO with vehicle (MCAO), 7.5 mg/kg N,N′-di-p-bromophenyl guanidine (p-Br-DPG) or 7.5 mg/kg 1,3 di-o-tolylguanidine (DTG). […] Stroke-induced damage was quantified using the Fluoro-Jade fluorescence to determine infarct volumes.

The subject of experiment [4] is Microglia. Nature of the experiment: Microglial migration to ATP in Boyden chamber. The conditions noted are these: 4 hrs at 37° C. The class given is cell-based. As for the experimental part: FIG. 10 is a graph showing microglial migration for 4 hrs at 37° C. Control media or 100 μM ATP were used in the absence and presence of DTG or p-Br-DPG (labeled BDTG). Asterisks indicate a significant difference between ATP (p<0.001, n=5) and ATP+BDTG 20 μM (p<0.01, n=5) from DMEM. Significance was determined by one-way ANOVA followed by post-hoc Bonferroni tests.
Microglial migration was assayed using a Boyden chamber fitted with a polycarbonate membrane containing 8 μm pores. Microglia (500,000 cells) were placed in the upper chamber and control media or 100 μM ATP were added in the absence and presence of DTG, or various indicated concentrations of p-Br-DPG to the bottom chamber. Microglia were allowed to migrate for 4 hrs at 37° C., and were subsequently stained with DAPI and counted.

The test system of experiment [5] is MCAO rats. The conditions noted are these: cited from earlier work.
The mark [6] stands for this setting: higher p-Br-DPG concentrations or DTG with 100 μM ATP.

Turning to `NC(=Nc1ccccc1)Nc1ccccc1` [DPhG], the “More effective than DTG in depressing Ca2+ dysregulation” value in experiment [1] is on record as around 25%.
Regarding `N=C(Nc1ccc(Br)cc1)Nc1ccc(Br)cc1` [p-Br-DPG, N,N′-di-p-bromophenyl guanidine], the “Effect against [Ca2+]i dysregulation compared with DTG” value in experiment [2] was “significantly higher effect against [Ca^2+]i than DTG”. Also, the Kd in experiment [2] turned out to be 13.5 µM; in experiment [1] (4 mM azide, 0 glucose, cortical neurons, n>50, read-out: Kd (Langmuir-Hill fit) for inhibition of [Ca2+]i increases evoked by chemical ischemia) it was 2.6 µM. Moreover, the “More effective than DTG in depressing Ca2+ dysregulation” value in experiment [1] was around 25%. For the same molecule, the “Infarct volume relative to the MCAO group” value in experiment [3] (7.5 mg/kg at 24, 48 and 72 h after MCAO, p<0.001) is on record as “significantly reduced infarct volume”. Further, in experiment [3] (7.5 mg/kg each at 24, 48 and 72 h after MCAO), the “Efficacy on infarct volume compared with DTG treatment” value was “slightly more efficacious than DTG treatment”. Moreover, the Microglia migration result in experiment [4] (20 μM with 100 μM ATP, compared to DMEM) is given as “significantly increased microglia migration”; in experiment [4] (setting [6]), “inhibited the migration”.
With `Cc1ccccc1NC(=N)Nc1ccccc1C` [DTG, N,N′-di-o-tolyl guanidine, reference compound], the Kd in experiment [2] was found to be 109 µM. Besides, in experiment [4] (setting [6]), the Microglia migration entry is recorded as “inhibited the migration”. In experiment [5] (MCAO rats (Ajmo 2006)), the “Reduction of infarct size” value is given as “more than 80%”. For the same molecule, the “Reduction of stroke damage” value in experiment [5] (administered 24 hours after experimental stroke) is 85%.
